Columns and labels:
SW480 (G12V) = test: In vitro cell proliferation inhibition test (CellTiter-Glo Luminescent Cell Viability Assay); type: cell-based; conditions: SW480 cell line, Large intestine, Colon, KRAS (p.G12V), cells and compounds co-incubated 72 hours
Source text: (§1) Due to the diversity of RAS mutations and in order to evaluate the activity of compounds in different RAS mutant cell lines, we selected KRAS^WT, KRAS^G12C, KRAS^G12D), KRAS^G12V and BRAF mutant cell lines (see the table below) for in vitro activity evaluation and screening of compounds .
(§2) Experimental protocol: CellTiter-Glo® Cell Luminescent Viability Assay (Promega)
(§3) According to the doubling time of different cell lines, different numbers of cells (1000-5000 cells/well) were inoculated into 96-well plates containing 180 µl of the corresponding medium, and cultured overnight in a 37°C cell incubator containing 5% CO2. On the second day, the compound to be tested was pre-diluted 3-fold with the medium, the highest concentration was 100 µM, and there were 10 concentration gradients in total; then 20 µl of the medium containing different concentrations of the compound was added to the cells in the 96-well plate to ensure the final concentration of the compound to be up to 10 µM, with 10 concentration gradients of 3-fold dilutions. After co-incubating cells and compounds for 72 hours, the 96-well plate was taken out of the incubator, placed at room temperature for 30 minutes, and then 25 µl CellTiter-Glo® Reagent was added to each well to mix well, and incubated at room temperature for 10 minutes, and then 100 µl of the sample was transferred to a white 96-well plate (OptiPlateTM-96, PerkinElmer), the […] signal value was read using a multi-functional microplate reader (SpectraMax® i3x, Molecular devices). Subsequently, the signal value was standardized, and the four-parameter fitting regression equation was used for curve fitting to calculate the half maximal inhibitory concentration (IC50) of the compound on the cell line. Table 3: Antiproliferative activity of compounds of the present invention on KRAS cell mutants

AsPC-1 (G12D) = test: as above; type: cell-based; conditions: AsPC-1 cell line, Pancreas, KRAS (p.G12D), cells and compounds co-incubated 72 hours
Source text: as §1, §2, §3

| Compound | IC50 (SW480 (G12V)) | IC50 (AsPC-1 (G12D)) | also measured |
| --- | --- | --- | --- |
| CO[C@@H](C)c1ncc(C#CCN2CCOCC2)cc1-c1c2c3cc(ccc3n1CC(F)(F)F)-c1csc(n1)C[C@H](NC(=O)[C@H]1C[C@@H]1C)C(=O)N1CCC[C@H](N1)C(=O)OCC(C)(C)C2 (single isomer, unassigned) [Example 3] | 2.2 nM | 3.5 nM | IC50 (SW480 (G12V); listed as 3'): 2060 nM; IC50 (AsPC-1 (G12D); listed as 3'): 292 nM |
| CCn1c(-c2cc(C#CC3CCN(C)C3)cnc2C(C)OC)c2c3cc(ccc31)-c1csc(n1)CC(NC(=O)C1C(C)C1C)C(=O)N1CCCC(N1)C(=O)OCC(C)(C)C2 (single isomer, unassigned) [Example 18] | 0.42 nM | 3.4 nM | – |
| CCn1c(-c2cc(C#C[C@@H]3CCN3C)cnc2[C@H](C)OC)c2c3cc(ccc31)-c1csc(n1)C[C@H](NC(=O)[C@H]1C[C@@H]1C)C(=O)N1CCC[C@H](N1)C(=O)OCC(C)(C)C2 [Example 13, (1S,2S)-N-((63S,4S,Z)-11-ethyl-12-(2-((S)-1-methoxyethyl)-5-(((S)-1-methylazetidin-2-yl)ethynyl)pyridin-3-yl)-10,10-dimethyl-5,7-dioxo-61,62,63,64,65,66-hexahydro-11H-8-oxa-2(4,2)-Thiazola-1(5,3)-indola-6(1,3)-pyridazinacyclonecaphane-4-yl)-2-methylcyclopropane-1-carboxamide] | 7590 nM | 5.7 nM | IC50 (AsPC-1 (G12D); listed as 13'): 2820 nM |
| CCn1c(-c2cc(C#Cc3ccccn3)cnc2[C@H](C)OC)c2c3cc(ccc31)-c1csc(n1)C[C@H](NC(=O)[C@H]1C[C@@H]1C)C(=O)N1CCC[C@H](N1)C(=O)OCC(C)(C)C2 [Example 16, (1S,2S)-N-((63S,4S,Z)-11-ethyl-12-(2-((S)-1-methoxyethyl)-5-(pyridin-2-ylethynyl)pyridin-3-yl)-10,10-dimethyl-5,7-dioxo-61,62,63,64,65,66-hexahydro-11H-8-oxa-2(4,2)-thiazola-1(5,3)-indola-6(1,3)-pyridazinacyclonecaphane-4-yl)-2-methylcyclopropane-1-carboxamide] | 28.8 nM | 38.8 nM | IC50 (SW480 (G12V); listed as 16'): 584 nM; IC50 (AsPC-1 (G12D); listed as 16'): 591 nM |
| CCn1c(-c2cc(C#C[C@@H]3CCN(C)C3)cnc2[C@H](C)OC)c2c3cc(ccc31)-c1csc(n1)C[C@H](NC(=O)C1[C@@H](C)[C@H]1C)C(=O)N1CCC[C@H](N1)C(=O)OCC(C)(C)C2 (stereo partly shown) [Example 14] | 0.2 nM | < 0.1 nM | IC50 (AsPC-1 (G12D); listed as 14'): 57.1 nM |
| CCn1c(-c2cc(C#CCN3CCOCC3)cnc2[C@H](C)OC)c2c3cc(ccc31)-c1csc(n1)C[C@H](NC(=O)[C@H]1C[C@@H]1c1ccccc1)C(=O)N1CCC[C@H](N1)C(=O)OCC(C)(C)C2 (single isomer, unassigned) [Example 23] | 3.8 nM | 1.6 nM | – |
| CCn1c(-c2cc(C#CC3CN(C)CCO3)cnc2C(C)OC)c2c3cc(ccc31)-c1csc(n1)CC(NC(=O)C1CC1C)C(=O)N1CCCC(N1)C(=O)OCC(C)(C)C2 (single isomer, unassigned) [Example 8] | 18.9 nM | 17.9 nM | IC50 (SW480 (G12V); listed as 8'): 2030 nM; IC50 (AsPC-1 (G12D); listed as 8'): 3870 nM |
| CCn1c(-c2cc(C#Cc3cnc4c(c3)CN(C)C4)cnc2[C@H](C)OC)c2c3cc(ccc31)-c1csc(n1)C[C@H](NC(=O)[C@H]1C[C@@H]1C)C(=O)N1CCC[C@H](N1)C(=O)OCC(C)(C)C2 [Example 46, (1S,2S)-N-((6^3S,4S,Z)-1^1-ethyl-1^2-(2-((S)-1-methoxyethyl)-5-((6-methyl-6,7-dihydro-5H-pyrrolo[3,4-b]pyridin-3-yl)ethynyl)pyridin-3-yl)-10,10-dimethyl-5,7-dioxo-6^1,6^2,6^3,6^4,6^5,6^6-hexahydro-1^1H-8-oxa-2(4,2)-thiazola-1(5,3)-indola-6(1,3)-pyridazinacycloundecaphane-4-yl)-2-methylcyclopropane-1-carboxamide] | 11.4 nM | 19.5 nM | – |
| (1S,2S)-N-((63S,4S,Z)-1^1-ethyl-1^2-(2-((S)-1-methoxyethyl)-5-((1-methylpiperidin-4-yl)ethynyl)pyridin-3-yl)-10,10-dimethyl-5,7-dioxo-6^1,6^2,6^3,6^4,6^5,6^6-hexahydro-1^1H-8-oxa-2(4,2)-thiazola-1(5,3)-indola-6(1,3)-pyridazinacycloundecaphane-4-yl)-2-methylcyclopropane-1-carboxamide [Example 29] | 2.8 nM | 1.2 nM | – |
| CCn1c(-c2cc(C#Cc3cccc4c3ccn4C)cnc2[C@H](C)OC)c2c3cc(ccc31)-c1csc(n1)C[C@H](NC(=O)[C@H]1C[C@@H]1C)C(=O)N1CCC[C@H](N1)C(=O)OCC(C)(C)C2 [Example 56, (1S,2S)-N-((6^3S,4S,Z)-1^1-ethyl-1^2-(2-((S)-1-methoxyethyl)-5-((1-methyl-1H-indol-4-yl)ethynyl)pyridin-3-yl)-10,10-dimethyl-5,7-dioxo-6^1,6^2,6^3,6^4,6^5,6^6-hexahydro-1^1H-8-oxa-2(4,2)-thiazola-1(5,3)-indola-6(1,3)-pyridazinacycloundecaphane-4-yl)-2-methylcyclopropane-1-carboxamide] | 487 nM | 291 nM | – |
| CCn1c(-c2cc(C#CCN3CCOC(CO)C3)cnc2C(C)OC)c2c3cc(ccc31)-c1csc(n1)CC(NC(=O)C1CC1C)C(=O)N1CCCC(N1)C(=O)OCC(C)(C)C2 (single isomer, unassigned) [Example 20] | 8.9 nM | 2.4 nM | – |
| CCn1c(-c2cc(C#CC3CN(C)C3)cnc2C(C)OC)c2c3cc(ccc31)-c1csc(n1)CC(NC(=O)C1CC1C)C(=O)N1CCCC(N1)C(=O)OCC(C)(C)C2 [Example 12, (1S,2S)-N-((63S,4S,Z)-11-ethyl-12-(2-((S)-1-methoxyethyl)-5-((1-methylazetidin-3-yl)ethynyl)pyridin-3-yl)-10,10-dimethyl-5,7-dioxo-61,62,63,64,65,66-hexahydro-11H-8-oxa-2(4,2)-thiazola-1(5,3)-indola-6(1,3)-pyridazinacyclonecaphane-4-yl)-2-methylcyclopropane-1-carboxamide] | 33.9 nM | 11.8 nM | IC50 (SW480 (G12V); listed as 12'): 1790 nM; IC50 (AsPC-1 (G12D); listed as 12'): 443 nM |
| CCn1c(-c2cc(C#Cc3cnc(N)cn3)cnc2[C@H](C)OC)c2c3cc(ccc31)-c1csc(n1)C[C@H](NC(=O)[C@H]1C[C@@H]1C)C(=O)N1CCC[C@H](N1)C(=O)OCC(C)(C)C2 [Example 35, (1S,2S)-N-((6^3S,4S,Z)-1^2-(5-((5-aminopyrazin-2-yl)ethynyl)-2-((S)-1-methoxyethyl)pyridin-3-yl)-1^1-ethyl-10,10-dimethyl-5,7-dioxo-6^1,6^2,6^3,6^4,6^5,6^6-hexahydro-1^1H-8-oxa-2(4,2)-thiazola-1(5,3)-indola-6(1,3)-pyridazinacycloundecaphane-4-yl)-2-methylcyclopropane-1-carboxamide] | – | – | IC50 (SW480 (G12V); Homo sapiens): 37 nM; IC50 (AsPC-1 (G12D); Homo sapiens, ASPC1): 56 nM |
| CCn1c(-c2cc(C#Cc3cncnc3N)cnc2C(C)OC)c2c3cc(ccc31)-c1csc(n1)CC(NC(=O)C1C(C)C1C)C(=O)N1CCCC(N1)C(=O)OCC(C)(C)C2 [Example 34, (1r,2R,3S)-N-((6^3S,4S,Z)-1^2-(5-((4-aminopyrimidin-5-yl)ethynyl)-2-((S)-1-methoxyethyl)pyridin-3-yl)-1^1-ethyl-10,10-dimethyl-5,7-dioxo-6^1,6^2,6^3,6^4,6^5,6^6-hexahydro-1^1H-8-oxa-2(4,2)-thiazola-1(5,3)-indola-6(1,3)-pyridazinacycloundecaphane-4-yl)-2,3-dimethylcyclopropane-1-carboxamide] | 0.75 nM | 1.3 nM | – |
| CCn1c(-c2cc(C#CCN3CCOCC3CO)cnc2C(C)OC)c2c3cc(ccc31)-c1csc(n1)CC(NC(=O)C1C(C)C1C)C(=O)N1CCCC(N1)C(=O)OCC(C)(C)C2 (single isomer, unassigned) [Example 25] | 0.51 nM | 0.35 nM | – |

— EP4582426A1, “PAN-KRAS INHIBITOR COMPOUND” (Adlai Nortye Biopharma Co., Ltd., priority 2022, dated 2024)
